Molecular target: Urease (Canavalia ensiformis, UniProt P07374)
Assay: Inhibition Assay
Description: Inhibition assay using urease from jack bean.

Sequence of Urease (P07374 whole entry): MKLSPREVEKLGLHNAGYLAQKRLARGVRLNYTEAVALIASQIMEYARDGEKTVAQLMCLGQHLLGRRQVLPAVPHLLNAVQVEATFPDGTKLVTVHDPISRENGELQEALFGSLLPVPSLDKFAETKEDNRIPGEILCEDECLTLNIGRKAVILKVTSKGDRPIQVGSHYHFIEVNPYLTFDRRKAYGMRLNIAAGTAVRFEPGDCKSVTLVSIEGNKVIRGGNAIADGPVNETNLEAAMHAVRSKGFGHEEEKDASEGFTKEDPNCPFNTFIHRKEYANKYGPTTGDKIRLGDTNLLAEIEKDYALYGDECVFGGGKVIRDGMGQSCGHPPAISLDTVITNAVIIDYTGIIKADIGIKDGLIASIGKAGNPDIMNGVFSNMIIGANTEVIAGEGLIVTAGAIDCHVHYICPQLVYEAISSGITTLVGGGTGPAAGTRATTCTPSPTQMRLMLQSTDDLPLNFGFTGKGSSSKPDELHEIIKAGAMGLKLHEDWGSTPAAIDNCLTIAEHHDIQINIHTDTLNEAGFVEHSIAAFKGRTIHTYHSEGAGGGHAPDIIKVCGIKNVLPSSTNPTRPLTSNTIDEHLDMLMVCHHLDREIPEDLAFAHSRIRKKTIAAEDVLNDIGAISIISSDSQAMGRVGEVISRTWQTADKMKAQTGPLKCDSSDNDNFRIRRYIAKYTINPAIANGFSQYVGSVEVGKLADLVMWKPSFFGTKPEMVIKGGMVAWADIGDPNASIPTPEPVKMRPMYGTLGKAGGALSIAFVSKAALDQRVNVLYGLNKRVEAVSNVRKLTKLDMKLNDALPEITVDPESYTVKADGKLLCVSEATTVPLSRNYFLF

`O=C1Nc2ccccc2/C1=N/NC(=S)Nc1c(Cl)cc(Cl)cc1Cl` [Thiosemicarbazone, 2l] was tested, and the IC50 was 28.6 µM.
